Data reported in the supplement of paper PMC10307832.

Columns and labels:
Experiment in all cases: relative viability (nuclei count vs DMSO), 5 days (fraction); higher = more cells survive
kb NB 142-70 + Dasatinib = compound: C1CSC2=C(C(=O)N1)SC3=C2C=C(C=C3)O [kb NB 142-70] + Cc1nc(Nc2ncc(C(=O)Nc3c(C)cccc3Cl)s2)cc(N2CCN(CCO)CC2)n1 [Dasatinib] (partner 0.075 µM)
How it was run: (§1)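 Relative viability is defined as nuclei in treated wells over nuclei in vehicle wells. Duplicate plates were run and medians reported. Lung cancer cell lines in 1536-well plates were dosed by pin tool one day after seeding, with one drug or with a fixed anchor-drug dose plus five library-drug doses (not always all listed) in √10 steps, and nuclei were counted after 5 days.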

[1] = compound: NCC(=O)Nc1ccc(-n2nc(C(F)(F)F)cc2-c2ccc3c(ccc4ccccc43)c2)cc1 + COc1cccc2cc(-c3nc([C@H]4CC[C@H](C(=O)O)CC4)n4ncnc(N)c34)[nH]c12 [OSI-027] (partner 0.5 µM)
How it was run: as §1

[2] = compound: NCC(=O)Nc1ccc(-n2nc(C(F)(F)F)cc2-c2ccc3c(ccc4ccccc43)c2)cc1 + Cc1nc(NC(=O)N2CCC[C@H]2C(N)=O)sc1-c1ccnc(C(C)(C)C(F)(F)F)c1 [Alpelisib] (partner 2 µM)
How it was run: as §1

[3] = compound: NCC(=O)Nc1ccc(-n2nc(C(F)(F)F)cc2-c2ccc3c(ccc4ccccc43)c2)cc1 + O=C(CCCCCCC(=O)Nc1ccccc1)NO [Vorinostat] (partner 1 µM)
How it was run: as §1

Cell Line | relative viability (kb NB 142-70 + Dasatinib; first compound 0.1 µM) | relative viability (kb NB 142-70 + Dasatinib; first compound 1 µM) | relative viability (kb NB 142-70 + Dasatinib; first compound 3.162 µM) | relative viability ([1]; first compound 0.02 µM) | relative viability ([1]; first compound 0.06325 µM) | relative viability ([1]; first compound 0.2 µM) | relative viability ([1]; first compound 0.6325 µM) | relative viability ([1]; first compound 2 µM) | relative viability ([2]; first compound 0.02 µM) | relative viability ([2]; first compound 0.06325 µM) | relative viability ([2]; first compound 0.2 µM) | relative viability ([2]; first compound 0.6325 µM) | relative viability ([2]; first compound 2 µM) | relative viability ([3]; first compound 0.02 µM) | relative viability ([3]; first compound 0.06325 µM) | relative viability ([3]; first compound 0.2 µM) | relative viability ([3]; first compound 0.6325 µM) | relative viability ([3]; first compound 2 µM)
NCI-H650 | 0.495 | 0.475 | 0.377 | 0.508 | 0.524 | 0.541 | 0.443 | 0.524 | 0.882 | 1.24 | 1.3 | 1.13 | 1.37 | 0.469 | 0.424 | 1.29 | 0.369 | 0.361
COR-L23 | 0.529 | 0.526 | 0.311 | 0.765 | 0.894 | 0.836 | 0.693 | 0.755 | 0.895 | 0.822 | 0.898 | 0.722 | 0.745 | 0.466 | 0.46 | 0.576 | 0.449 | 0.372
COR-L 105 | 0.363 | 0.33 | 0.345 | 0.593 | 0.626 | 0.623 | 0.776 | 0.6 | 0.911 | 1.12 | 1.26 | 0.896 | 0.969 | 0.873 | 0.861 | 0.724 | 0.781 | 1.04
LK-2 | 0.231 | 0.231 | 0.229 | 0.182 | 0.207 | 0.21 | 0.246 | 0.174 | 1.04 | 1.04 | 0.979 | 1.14 | 0.969 | 0.445 | 0.279 | 0.244 | 0.288 | 0.256
201T | 0.596 | 0.47 | 0.565 | 0.806 | 0.769 | 0.724 | 0.649 | 0.606 | 1.08 | 1.05 | 1.04 | 1 | 1.05 | 0.926 | 0.968 | 0.957 | 0.974 | 0.935
NCI-H596 | 0.551 | 0.571 | 0.442 | 0.731 | 0.865 | 0.83 | 0.727 | 0.799 | 0.63 | 0.5 | 0.483 | 0.553 | 0.505 | 0.636 | 0.705 | 0.706 | 0.731 | 0.526
H3255 | 0.297 | 0.404 | 0.405 | 0.557 | 0.617 | 0.629 | 0.667 | 0.596 | 0.782 | 0.651 | 0.746 | 0.811 | 0.731 | 0.766 | 0.84 | 0.872 | 0.809 | 0.722
NCI-H647 | 0.185 | 0.189 | 0.119 | 0.494 | 0.681 | 0.67 | 0.573 | 0.773 | 1.31 | 1.15 | 1.21 | 1.12 | 0.982 | 0.409 | 0.539 | 0.578 | 0.411 | 0.486
NCI-H2023 | 0.51 | 0.536 | 0.5 | 0.381 | 0.422 | 0.428 | 0.422 | 0.351 | 0.606 | 0.625 | 0.609 | 0.577 | 0.596 | 0.619 | 0.854 | 0.58 | 0.653 | 0.621
NCI-H23 | 0.792 | 0.713 | 0.287 | 0.576 | 0.664 | 0.809 | 0.608 | 0.531 | 0.59 | 0.774 | 0.865 | 0.806 | 0.725 | 0.583 | 0.626 | 0.644 | 0.573 | 0.555
NCI-H1944 | 0.207 | 0.243 | 0.201 | 0.37 | 0.442 | 0.427 | 0.423 | 0.47 | 0.865 | 0.833 | 0.793 | 0.818 | 0.87 | 0.546 | 0.695 | 0.554 | 0.558 | 0.526
NCI-H1793 | 0.388 | 0.424 | 0.443 | 0.26 | 0.263 | 0.321 | 0.276 | 0.251 | 0.682 | 0.734 | 0.72 | 0.666 | 0.736 | 0.758 | 0.874 | 0.699 | 0.793 | 0.86
NCI-H520 | 0.168 | 0.197 | 0.173 | 0.238 | 0.265 | 0.296 | 0.243 | 0.234 | 0.979 | 0.982 | 1.04 | 0.92 | 0.896 | 0.631 | 0.779 | 0.873 | 0.77 | 0.763
NCI-H460 | 0.504 | 0.422 | 0.336 | 0.583 | 0.642 | 0.696 | 0.587 | 0.675 | 0.576 | 0.425 | 0.486 | 0.491 | 0.449 | 0.707 | 0.662 | 0.687 | 0.737 | 0.661
